These results are taken from PMC4425608 (Pharmaceutical research, 2014).

In one series the test system is GHB uptake in KNRK cells. The experiment in a line: Inhibition of [3H]GHB uptake in KNRK cells. It counts as cell-based. Particulars: rat KNRK cells.
The subject of a further series is MCT2. The following applies: expressed in Xenopus laevis oocytes; cited from earlier work.
Another series deals with MCT4. Particulars: expressed in Xenopus laevis oocytes; cited from earlier work.
Series [1] is described as follows: Pharmacokinetics of AR-C155858 in rats following intravenous administration. Particulars: 0.1, 1, and 5 mg/kg i.v. bolus.
For series [2] the following is noted: rats, mean (SD), cited from earlier work.
Series [3] relates to GHB-induced respiratory depression. Particulars: rats, mean (SD), cited from earlier work.
The nature of series [4]: GHB blood-brain partitioning at steady state. The following applies: rats; GHB 400 mg/kg i.v. bolus + 208 mg/kg/h i.v. infusion alone; 4 h; mean ± SD.
Series [5] in a line: Oral GHB toxicokinetics with and without AR-C155858.
For series [6] the following is noted: rats, cited from earlier work.
Setting [7] is: GHB 1500 mg/kg i.v. bolus alone.
The mark [8] stands for this setting: male, Sprague-Dawley, rat, plasma, po, 1500 mg/kg.
[9] abbreviates: rats, GHB 1500 mg/kg oral gavage alone, mean (SD).

Each structure is given as a SMILES string. “Also recorded” adds a separate entry of the source. Where two headings read alike, the source gives them in different places.

With `Cc1n[nH]c(C)c1Cc1sc2c(c1C(=O)N1C[C@H](O)CO1)c(=O)n(C)c(=O)n2CC(C)C` [AR-C155858, 6-[(3,5-Dimethyl-1H-pyrazol-4-yl)methyl]-5-[[(4S)-4-hydroxy-2-isoxazolidinyl]carbonyl]-3-methyl-1-(2-methylpropyl)thieno[2,3-d]pyrimidine-2,4(1H,3H)-dione], in the series with GHB uptake in KNRK cells (100 nM AR-C155858, pre-incubation 0-60 min), the “pre-incubation time giving maximal inhibition of GHB uptake” value amounted to 30 min. Moreover, the “concentration giving maximal inhibition of GHB uptake” value in the series on GHB uptake in KNRK cells (30 min pre-incubation) came to 100 nM. Further, in the series with GHB uptake in KNRK cells (30 min pre-incubation with 100 nM, washed 3 times), the “reversibility of inhibition of GHB uptake after washing the cells” value is recorded as “not to be rapidly reversible”. For the same compound, in the series with GHB uptake in KNRK cells (linear trend in inhibition up to 30 nM, 30 min pre-incubation), the “inhibition of GHB uptake” value was determined as 70%. Further, the “inhibition of MCT2” value in the series with MCT2 is listed as “potently inhibited; also recorded: can also inhibit”. Also, the “inhibition of MCT4” value with MCT4 is recorded as “no inhibition; also recorded: does not inhibit”. For the same compound, the “AR-C155858 plasma concentration-time profile” value in [1] was “biexponential decline and dose-proportional pharmacokinetics”.
What is called CL/F is the apparent clearance, not corrected for the fraction that reaches the circulation. What is called Cmax is the peak of the concentration-time curve. Regarding `O=C(O)CCCO` [GHB, γ-hydroxybutyric acid], in series [2] (GHB 200 mg/kg i.v. bolus alone), the “GHB AUC” value is recorded as 26.2 (0.90) mg.min/ml, the “GHB CLR (renal clearance)” value was 0.44 (0.20) ml/min/kg, the “GHB CLT (total clearance)” value is 7.60 (0.29) ml/min/kg and the GHB urinary recovery is 5.90 (2.86) %. Moreover, in series [2] (GHB 600 mg/kg i.v. bolus alone), the “GHB AUC” value is given as 102 (12.4) mg.min/ml, the “GHB CLR (renal clearance)” value is listed as 1.68 (0.75) ml/min/kg and the GHB urinary recovery is 27.3 (9.77) %. Also, in [2] (setting [7]), the “GHB AUC” value is on record as 288 (39.8) mg.min/ml, the “GHB CLT (total clearance)” value was 5.16 (0.70) ml/min/kg and the GHB urinary recovery is reported as 61.1 (5.02) %. Moreover, in series [3] (GHB 200 mg/kg i.v. bolus alone), the “AUEC, area under the effect curve for breathing frequency” value (from here on “AUEC, area under the effect curve”) was 2243 (1508) breaths; the “Emax, maximum effect on breathing frequency” value (from here on “Emax, maximum effect”) is on record as 51.9 (8.51) breaths/ min; the “Td, duration of effect on breathing frequency” value (shortened to “Td, duration of effect”) was 113 (60.6) min. For the same compound, in [3] (GHB 600 mg/kg i.v. bolus alone), the “AUEC, area under the effect curve” value is given as 7987 (1228) breaths; the “Emax, maximum effect” value is given as 29.5 (6.94) breaths/ min; the “Td, duration of effect” value is given as 153 (12.5) min. In series [3] (setting [7]), the “AUEC, area under the effect curve” value is 12505 (1995) breaths; the “Emax, maximum effect” value is on record as 15.6 (7.05) breaths/ min; the “Td, duration of effect” value is recorded as 281 (72.8) min. Moreover, in series [4], the “Cbrain, brain GHB concentration at steady-state” value stood at 0.22 ± 0.03 mg/g and the “Cplasma, plasma GHB concentration at steady-state” value came out at 0.87 ± 0.05 mg/mL. In [5] (setting [8]), this compound registered an apparent clearance (CL/F) of 6.52 mL/min/kg and a peak concentration (Cmax) of 659 µg/mL. In series [5] (male, Sprague-Dawley, rat, urine and plasma, po, 1500 mg/kg), this compound displayed a CL renal of 1.82 mL/min/kg. For the same compound, in series [5] (setting [9]), the “GHB AUC” value is recorded as 233 (30.0) mg.min/ml and the GHB urinary excretion is listed as 28.2 (10.1) %.
Consider `C[C@H](O)C(=O)O` [L-lactate], for which the “effect on GHB extracellular fluid concentrations in the frontal cortex” value in series [6] (higher doses, plasma steady state L-lactate concentrations ≈ 4–5 mM) was “decreased”; in series [6] (lower doses, plasma steady state L-lactate concentrations ≈ 1–2 mM), “no significant effect”.
